Laboratory results as given in ChEMBL document CHEMBL3885861, “Open TG-GATES”.

Organism: Rattus norvegicus
Assay: Open TG-GATES - Regimen: Single
Type: toxicity, organism-based, Sprague-Dawley
Set-up: regimen Single, gender Male, age 6 weeks
Conditions: in vivo, po, 0 mg/kg, route gavage, dose level Control; for APTT / Bas / Eos / Fbg / Hb / Ht / Lym / MCH / MCHC / MCV / Mono / Neu / PT / Plat / RBC / Ret / WBC: tissue Blood; for KIDNEY_L / KIDNEY_R / KIDNEY_TOTAL: tissue Kidney; for LIVER: tissue Liver; for A/G / ALP / ALT / AST / BUN / CRE / Ca / Cl / DBIL / GLC / IP / K / LDH / Na / PL / RALB / TBIL / TC / TG / TP / gamma-GTP: tissue Plasma

Nc1c2c(nc3ccccc13)CCCC2 [TACRINE]
TERMINAL_BW (3 h): 206.5 g | APTT (3 h): 19.7 s | Bas (3 h): 0% | Eos (3 h): 0.8% | Fbg (3 h): 293.2 mg/dL | Hb (3 h): 13 g/dL | Ht (3 h): 37.9% | Lym (3 h): 81.6% | MCH (3 h): 21.2 pg | MCHC (3 h): 34.2% | MCV (3 h): 61.7 fL | Mono (3 h): 2% | Neu (3 h): 15% | PT (3 h): 16.3 s | Plat (3 h): 114.9 x10_4/uL | RBC (3 h): 614.4 x10_4/ul | Ret (3 h): 7.9% | WBC (3 h): 97 x10_2/uL | KIDNEY_L (3 h): 0.9 g | KIDNEY_R (3 h): 0.9 g | KIDNEY_TOTAL (3 h): 1.8 g | LIVER (3 h): 9.3 g | A/G (3 h): 1.2 | ALP (3 h): 1417 IU/L | ALT (3 h): 39.6 IU/L | AST (3 h): 77.8 IU/L | BUN (3 h): 13 mg/dL | CRE (3 h): 0.2 mg/dL | Ca (3 h): 10.6 mg/dL | Cl (3 h): 106.8 meq/L | DBIL (3 h): 0.002 mg/dL | GLC (3 h): 189.6 mg/dL | IP (3 h): 7.9 mg/dL | K (3 h): 3.9 meq/L | LDH (3 h): 229 IU/L | Na (3 h): 142.6 meq/L | PL (3 h): 131.4 mg/dL | RALB (3 h): 3 g/dL | TBIL (3 h): 0.018 mg/dL | TC (3 h): 73.2 mg/dL | TG (3 h): 60 mg/dL | TP (3 h): 5.4 g/dL | gamma-GTP (3 h): 1.2 IU/L | TERMINAL_BW (6 h): 208.7 g | APTT (6 h): 21.4 s | Bas (6 h): 0% | Eos (6 h): 0.8% | Fbg (6 h): 310.4 mg/dL | Hb (6 h): 13.3 g/dL | Ht (6 h): 38.6% | Lym (6 h): 80.2% | MCH (6 h): 21.1 pg | MCHC (6 h): 34.5% | MCV (6 h): 61.1 fL | Mono (6 h): 2.6% | Neu (6 h): 16% | PT (6 h): 16.1 s | Plat (6 h): 115.4 x10_4/uL | RBC (6 h): 632.2 x10_4/ul | Ret (6 h): 7.7% | WBC (6 h): 96.6 x10_2/uL | KIDNEY_L (6 h): 0.9 g | KIDNEY_R (6 h): 0.9 g | KIDNEY_TOTAL (6 h): 1.9 g | LIVER (6 h): 9 g | A/G (6 h): 1.2 | ALP (6 h): 1333 IU/L | ALT (6 h): 38.4 IU/L | AST (6 h): 74.6 IU/L | BUN (6 h): 10.8 mg/dL | CRE (6 h): 0.2 mg/dL | Ca (6 h): 10.6 mg/dL | Cl (6 h): 106.8 meq/L | DBIL (6 h): 0 mg/dL | GLC (6 h): 176.6 mg/dL | IP (6 h): 9.2 mg/dL | K (6 h): 4.6 meq/L | LDH (6 h): 252.4 IU/L | Na (6 h): 142 meq/L | PL (6 h): 137.4 mg/dL | RALB (6 h): 2.9 g/dL | TBIL (6 h): 0.016 mg/dL | TC (6 h): 79.4 mg/dL | TG (6 h): 82 mg/dL | TP (6 h): 5.4 g/dL | gamma-GTP (6 h): 1.2 IU/L | TERMINAL_BW (9 h): 205.8 g | APTT (9 h): 19.8 s | Bas (9 h): 0% | Eos (9 h): 1% | Fbg (9 h): 285.8 mg/dL | Hb (9 h): 13.2 g/dL | Ht (9 h): 38.4% | Lym (9 h): 81.6% | MCH (9 h): 21.1 pg | MCHC (9 h): 34.2% | MCV (9 h): 61.5 fL | Mono (9 h): 2% | Neu (9 h): 15% | PT (9 h): 16 s | Plat (9 h): 120 x10_4/uL | RBC (9 h): 624.8 x10_4/ul | Ret (9 h): 8.6% | WBC (9 h): 84.5 x10_2/uL | KIDNEY_L (9 h): 0.9 g | KIDNEY_R (9 h): 0.9 g | KIDNEY_TOTAL (9 h): 1.8 g | LIVER (9 h): 8.8 g | A/G (9 h): 1.3 | ALP (9 h): 1213.6 IU/L | ALT (9 h): 34 IU/L | AST (9 h): 72.6 IU/L | BUN (9 h): 12.6 mg/dL | CRE (9 h): 0.2 mg/dL | Ca (9 h): 10.4 mg/dL | Cl (9 h): 107 meq/L | DBIL (9 h): 0 mg/dL | GLC (9 h): 185.6 mg/dL | IP (9 h): 9.9 mg/dL | K (9 h): 4.2 meq/L | LDH (9 h): 230.8 IU/L | Na (9 h): 142 meq/L | PL (9 h): 139 mg/dL | RALB (9 h): 3 g/dL | TBIL (9 h): 0.022 mg/dL | TC (9 h): 75.8 mg/dL | TG (9 h): 60.8 mg/dL | TP (9 h): 5.4 g/dL | gamma-GTP (9 h): 1 IU/L | TERMINAL_BW (24 h): 214.7 g | APTT (24 h): 20.5 s | Bas (24 h): 0% | Eos (24 h): 0.8% | Fbg (24 h): 295.8 mg/dL | Hb (24 h): 13.4 g/dL | Ht (24 h): 38.7% | Lym (24 h): 83% | MCH (24 h): 21.5 pg | MCHC (24 h): 34.8% | MCV (24 h): 61.9 fL | Mono (24 h): 3% | Neu (24 h): 12.4% | PT (24 h): 16.3 s | Plat (24 h): 126.5 x10_4/uL | RBC (24 h): 626.2 x10_4/ul | Ret (24 h): 7.3% | WBC (24 h): 106.1 x10_2/uL | KIDNEY_L (24 h): 0.9 g | KIDNEY_R (24 h): 1 g | KIDNEY_TOTAL (24 h): 1.9 g | LIVER (24 h): 10 g | A/G (24 h): 1.3 | ALP (24 h): 1572.4 IU/L | ALT (24 h): 43 IU/L | AST (24 h): 74.4 IU/L | BUN (24 h): 18.8 mg/dL | CRE (24 h): 0.2 mg/dL | Ca (24 h): 10.8 mg/dL | Cl (24 h): 106.8 meq/L | DBIL (24 h): 0.008 mg/dL | GLC (24 h): 191.6 mg/dL | IP (24 h): 7.3 mg/dL | K (24 h): 4.6 meq/L | LDH (24 h): 300.2 IU/L | Na (24 h): 141.4 meq/L | PL (24 h): 154.2 mg/dL | RALB (24 h): 3.1 g/dL | TBIL (24 h): 0.032 mg/dL | TC (24 h): 79.8 mg/dL | TG (24 h): 103 mg/dL | TP (24 h): 5.4 g/dL | gamma-GTP (24 h): 1 IU/L
